We go through 21 molecules from patent US20230242530A1, “8-(AZETIDIN-1-YL)-[1,2,4]TRIAZOLO[1,5-A]PYRIDINYL COMPOUNDS, COMPOSITIONS AND METHODS OF USE THEREOF” (Genentech, Inc., priority 2016, published 2023).

Assay [1] has as its target T1, isolated recombinant JAK2 kinase domain (Homo sapiens, UniProt O60674).
T1 construct: isolated recombinant JAK1 and JAK2 kinase domain
The assay is described as follows: JAK enzyme assay, JAK2 kinase domain (Caliper LabChip). Type of assay: biochemical. The following applies: 0.2 nM JAK2, ATP 25 μM, Morrison tight binding model. In short, it runs like this: (§1)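 Recombinant kinase domains phosphorylated a 5-carboxyfluorescein-labelled JAK3-derived peptide for 30 min at 22 °C, and the reaction was stopped with EDTA (50 mM final). Product fraction was measured by Caliper LabChip mobility shift. Ki came from Morrison tight-binding fits corrected for ATP competition (Ki=Ki,app/(1+[ATP]/Km,app)).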

For assay [2], the system named is JAK1-dependent STAT6 phosphorylation downstream of IL-13 stimulation in BEAS-2B cells. The assay is described as follows: JAK1 pathway assay in cell lines: IL-13 p-STAT6 BEAS-2B. The class given is cell-based. The settings on record: BEAS-2B human bronchial epithelial cells, 1 hr compound, IL-13 15 min, MSD readout. In short, it runs like this:
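BEAS-2B cells plated a day ahead in complete growth medium; compounds added 1 hr at 37 °C (0.2% DMSO final), then IL-13 at lot-specific EC90 for 15 min at 37 °C. Phospho-STAT6 in lysates measured by MSD; EC50 is 50% inhibition relative to DMSO control.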

Assay [3] concerns the target T2, isolated recombinant JAK1 kinase domain (Homo sapiens, UniProt P23458).
T2 construct: isolated recombinant JAK1 and JAK2 kinase domain
Nature of the assay: JAK enzyme assay, JAK1 kinase domain (Caliper LabChip). Type of assay: biochemical. The settings on record: 1.5 nM JAK1, ATP 25 μM, Morrison tight binding model. In short, it runs like this:
as §1

pEC50, pKi: −log10 of the molar value.

T2 sequence (P23458 875-1153 limits assumed): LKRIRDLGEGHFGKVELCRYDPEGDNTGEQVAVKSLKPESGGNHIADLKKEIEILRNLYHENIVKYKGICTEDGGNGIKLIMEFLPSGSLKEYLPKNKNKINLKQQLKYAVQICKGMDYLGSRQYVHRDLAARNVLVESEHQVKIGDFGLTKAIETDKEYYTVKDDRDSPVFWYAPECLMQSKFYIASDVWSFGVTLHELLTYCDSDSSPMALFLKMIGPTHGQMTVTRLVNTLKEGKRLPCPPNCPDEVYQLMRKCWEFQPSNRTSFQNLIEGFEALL
T1 sequence (O60674 849-1124 limits assumed): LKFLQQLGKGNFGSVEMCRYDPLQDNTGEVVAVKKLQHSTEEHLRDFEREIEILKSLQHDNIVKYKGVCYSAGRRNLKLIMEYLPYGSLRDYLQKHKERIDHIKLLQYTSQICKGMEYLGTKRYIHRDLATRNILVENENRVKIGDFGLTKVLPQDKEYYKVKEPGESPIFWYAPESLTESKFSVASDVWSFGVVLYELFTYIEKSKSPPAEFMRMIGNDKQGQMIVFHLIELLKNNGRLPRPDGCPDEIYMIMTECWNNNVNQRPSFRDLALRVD

Consider `CCc1cnn(C2(CC#N)CN(c3cccn4nc(Nc5cnn(CC(=O)N6CCC(CN7CCN(C)CC7)CC6)c5)nc34)C2)c1` [Example 47], for which the pKi in assay [1] is 9.70; in assay [3], 9.40. Besides, the pEC50 in assay [2] is 7.96.
As to `CN1CCN(C(=O)Cn2cc(Nc3nc4c(N5CC(CC#N)(n6cc(CNCC(F)(F)F)cn6)C5)cccn4n3)cn2)CC1` [Example 48], the results for the pKi in assay [1] and in assay [3] were 8.82 and 9.30, respectively. In addition, in assay [2], the negative logarithm of the EC50 (pEC50) was 7.48.
Turning to `CN1CCN(C(=O)Cn2cc(Nc3nc4c(N5CC(CC#N)(n6cc(C7CCCC7)cn6)C5)cccn4n3)cn2)CC1` [Example 49, 2-[3-(4-cyclopentylpyrazol-1-yl)-1-[2-[[1-[2-(4-methylpiperazin-1-yl)-2-oxo-ethyl]pyrazol-4-yl]amino]-[1,2,4]triazolo[1,5-a]pyridin-8-yl]azetidin-3-yl]acetonitrile], the pKi was 8.62 in assay [1] and 9.22 in assay [3]. The negative logarithm of the EC50 (pEC50) in assay [2] was 7.52.
Consider `CCc1cnn(C2(CC#N)CN(c3cccn4nc(Nc5ccc6c(c5)CCN(C)C6)nc34)C2)c1` [Example 50, 2-[3-(4-ethylpyrazol-1-yl)-1-[2-[(2-methyl-3,4-dihydro-1H-isoquinolin-6-yl)amino]-[1,2,4]triazolo[1,5-a]pyridin-8-yl]azetidin-3-yl]acetonitrile], for which the pKi in assay [1] is 8.70; in assay [3], 8.74. Besides, the pEC50 in assay [2] was 7.19.
Taken in the same sequence, the figures for `CCc1cnn(C2(CC#N)CN(c3cccn4nc(Nc5ccc6c(c5)CCN(C5COC5)C6)nc34)C2)c1` [Example 51, 2-[3-(4-ethylpyrazol-1-yl)-1-[2-[[2-(oxetan-3-yl)-3,4-dihydro-1H-isoquinolin-6-yl]amino]-[1,2,4]triazolo[1,5-a]pyridin-8-yl]azetidin-3-yl]acetonitrile] were 8.80, 9.52 and 7.36.
With `CCc1cnn(C2(CC#N)CN(c3cccn4nc(Nc5cnn(CC(=O)N6CCC(N(C)CC(C)(C)C#N)CC6)c5)nc34)C2)c1` [Example 52, 3-[[1-[2-[4-[[8-[3-(cyanomethyl)-3-(4-ethylpyrazol-1-yl)azetidin-1-yl]-[1,2,4]triazolo[1,5-a]pyridin-2-yl]amino]pyrazol-1-yl]acetyl]-4-piperidyl]-methyl-amino]-2,2-dimethyl-propanenitrile], the values for the pKi in assay [1] and in assay [3] were 9.30 and 9.70, respectively. This molecule showed a pEC50 in assay [2] of 7.89.
For `CCc1cnn(C2(CC#N)CN(c3cccn4nc(Nc5cnn(CC(=O)N6CCC(CN7CCOCC7)CC6)c5)nc34)C2)c1` [Example 53, 2-[3-(4-ethylpyrazol-1-yl)-1-[2-[[1-[2-[4-(morpholinomethyl)-1-piperidyl]-2-oxo-ethyl]pyrazol-4-yl]amino]-[1,2,4]triazolo[1,5-a]pyridin-8-yl]azetidin-3-yl]acetonitrile], the pKi in assay [1] was 9.22; in assay [3], 9.05. This molecule also had a pEC50 in assay [2] of 7.51.
Regarding `CCc1cnn(C2(C(C)C#N)CN(c3cccn4nc(Nc5cnn(CC(=O)N6CCN(C)CC6)c5)nc34)C2)c1` (stereo not drawn) [Example 54, 2-[3-(4-ethylpyrazol-1-yl)-1-[2-[[1-[2-(4-methylpiperazin-1-yl)-2-oxo-ethyl]pyrazol-4-yl]amino]-[1,2,4]triazolo[1,5-a]pyridin-8-yl]azetidin-3-yl]propanenitrile], the pKi in assay [1] is 8.55; in assay [3] it was 9.00. Besides, the pEC50 in assay [2] was 6.64.
With `CN1CCN(C(=O)Cn2cc(Nc3nc4c(N5CC(CC#N)(n6cc(C7CCCCC7)cn6)C5)cccn4n3)cn2)CC1` [Example 55], the pKi in assay [1] is 8.24; in assay [3], 9.00. Besides, the pEC50 in assay [2] is 6.86.
For the molecule `CC(C)c1cnn(C2(CC#N)CN(c3cccn4nc(Nc5cnn(CC(=O)N6CCN(C)CC6)c5)nc34)C2)c1` [Example 56, formic acid;2-[3-(4-isopropyipyrazol-1-yl)-1-[2-[[1-[2-(4-methylpiperazin-1-yl)-2-oxo-ethyl]pyrazol-4-yl]amino]-[1,2,4]triazolo[1,5-a]pyridin-8-yl]azetidin-3-yl]acetonitrile], the figures for the pKi in assay [1] and in assay [3] were 7.98 and 8.64, respectively. The molecule further gave a pEC50 in assay [2] of 6.50.
Turning to `CCc1cnn(C2(CC#N)CN(c3cccn4nc(Nc5ccc6c(c5)CCN(C5CCOCC5)C6)nc34)C2)c1` [Example 57, 2-[3-(4-ethylpyrazol-1-yl)-1-[2-[(2-tetrahydropyran-4-yl-3,4-dihydro-1H-isoquinolin-6-yl)amino]-[1,2,4]triazolo[1,5-a]pyridin-8-yl]azetidin-3-yl]acetonitrile], the pKi is 8.89 in assay [1] and 9.52 in assay [3]. In assay [2], the pEC50 was 7.92.
For the molecule `CCc1cnn(C2(CC#N)CN(c3cccn4nc(Nc5cnn(CC(=O)N6CCN(CCNC(=O)CC78CC9CC(CC(C9)C7)C8)CC6)c5)nc34)C2)c1` [Example 58, 2-(l-adamantyl)-N-[2-[4-[2-[4-[[8-[3-(cyanomethyl)-3-(4-ethylpyrazol-1-yl)azetidin-1-yl]-[1,2,4]triazolo[1,5-a]pyridin-2-yl]amino]pyrazol-1-yl]acetyl]piperazin-1-yl]ethyl]acetamide], the pKi in assay [1] is 9.52; in assay [3], 9.40. Further, the pEC50 in assay [2] is 7.89.
In the case of `CN1CCN(C(=O)Cn2cc(Nc3nc4c(N5CC(CC#N)(n6cc(CCc7ccccc7)cn6)C5)cccn4n3)cn2)CC1` [Example 59, 2-[1-[2-[[1-[2-(4-methylpiperazin-1-yl)-2-oxo-ethyl]pyrazol-4-yl]amino]-[1,2,4]triazolo[1,5-a]pyridin-8-yl]-3-[4-(2-phenylethyl)pyrazol-1-yl]azetidin-3-yl]acetonitrile], the pKi in assay [1] and in assay [3] was 9.70 in each case. In assay [2], this molecule showed a pEC50 of 8.10.
`CCc1ccc(C2(CC#N)CN(c3cccn4nc(Nc5cnn(CC(=O)N6CCN(C)CC6)c5)nc34)C2)cc1` [Example 60, 2-[3-(4-ethylphenyl)-1-[2-[[1-[2-(4-methylpiperazin-1-yl)-2-oxo-ethyl]pyrazol-4-yl]amino]-[1,2,4]triazolo[1,5-a]pyridin-8-yl]azetidin-3-yl]acetonitrile]: the pKi was 8.54 in assay [1] and 9.40 in assay [3]. The same molecule showed a pEC50 in assay [2] of 7.72.
Consider `Cc1ccccc1-c1cnn(C2(CC#N)CN(c3cccn4nc(Nc5cnn(CC(=O)N6CCN(C)CC6)c5)nc34)C2)c1` [Example 63], for which the pKi in assay [1] and in assay [3] was 9.70 in each case. In assay [2], this molecule gave a pEC50 of 7.89.
In the case of `CCc1cnn(C2(CC#N)CN(c3cccn4nc(Nc5ccc(C(=O)NCc6ccc(C)nc6)cc5)nc34)C2)c1` [Example 64, 4-[[8-[3-(cyanomethyl)-3-(4-ethylpyrazol-1-yl)azetidin-1-yl]-[1,2,4]triazolo[1,5-a]pyridin-2-yl]amino]-N-[(6-methyl-3-pyridyl)methyl]benzamide], the values for the pKi in assay [1] and in assay [3] were 9.70 and 9.52, respectively. In assay [2], this molecule had a pEC50 of 7.82.
As for `CCc1cnn(C2(CC#N)CN(c3cccn4nc(Nc5ccc(C(=O)N6CC(C(=O)N7CCN(C)CC7)C6)cc5)nc34)C2)c1` [Example 65, 2-[3-(4-ethylpyrazol-1-yl)-1-[2-[4-[3-(4-methylpiperazine-1-carbonyl)azetidine-1-carbonyl]anilino]-[1,2,4]triazolo[1,5-a]pyridin-8-yl]azetidin-3-yl]acetonitrile], the pKi was 8.89 in assay [1] and 9.30 in assay [3]. Further, the pEC50 in assay [2] is 7.07.
With `CCc1cnn(C2(CC#N)CN(c3cccn4nc(Nc5ccc(C(=O)NCCN6CCOCC6)cc5)nc34)C2)c1` [Example 66, 4-[[8-[3-(cyanomethyl)-3-(4-ethylpyrazol-1-yl)azetidin-1-yl]-[1,2,4]triazolo[1,5-a]pyridin-2-yl]amino]-N-(2-morpholinoethyl)benzamide], the pKi in assay [1] was 9.30; in assay [3] it was 9.52. In assay [2], this molecule gave a pEC50 of 7.51.
As to `CCc1cnn(C2(CC#N)CN(c3cccn4nc(Nc5ccc(C(=O)NCCCN6CCOCC6)cc5)nc34)C2)c1` [Example 67, 4-[[8-[3-(cyanomethyl)-3-(4-ethylpyrazol-1-yl)azetidin-1-yl]-[1,2,4]triazolo[1,5-a]pyridin-2-yl]amino]-N-(3-morpholinopropyl)benzamide], the pKi in assay [1] was 8.96; in assay [3], 9.30. The molecule further gave a pEC50 in assay [2] of 6.78.
On to `CCc1cnn(C2(CC#N)CN(c3cccn4nc(Nc5cnn(CC(=O)N6CCN(CCCC#N)CC6)c5)nc34)C2)c1` [Example 68, 4-[4-[2-[4-[[8-[3-(cyanomethyl)-3-(4-ethylpyrazol-1-yl)azetidin-1-yl]-[1,2,4]triazolo[1,5-a]pyridin-2-yl]amino]pyrazol-1-yl]acetyl]piperazin-1-yl]butanenitrile], for which the pKi is 9.30 in assay [1] and 9.52 in assay [3]. The molecule further had a pEC50 in assay [2] of 7.85.
Take `N#CCC1(c2cccc(Cl)c2)CN(c2cccn3nc(Nc4cnn(CC(=O)N5CCN(C6COC6)CC5)c4)nc23)C1` [Example 69, 2-[3-(3-chlorophenyl)-1-[2-[[1-[2-[4-(oxetan-3-yl)piperazin-1-yl]-2-oxo-ethyl]pyrazol-4-yl]amino]-[1,2,4]triazolo[1,5-a]pyridin-8-yl]azetidin-3-yl]acetonitrile]: the pKi was 9.30 in assay [1] and 9.52 in assay [3]. In addition, the pEC50 in assay [2] was 7.68.
